# From PubChem BioAssay AID328 (DTP/NCI, 2004)
# “And” between values parts separate entries of the source, which are not always exact repeats. Identical values can stand only once. Toxic doses and inconclusive results are not listed. Non-standard residues stand in square brackets, D forms with d. Residues, ends and D or L forms follow the SMILES beside them. ξ: configuration not given here. ξPhe(4-N(CH2CH2Cl)2) = NC(Cc1ccc(N(CCCl)CCCl)cc1)C(=O)O
# Test system: BDF1 mice, P388 leukemia ip, median survival T/C
# Test: NCI In Vivo Anticancer Drug Screen. Data for tumor model P388 Leukemia (intraperitoneal) in B6D2F1 (BDF1) mice
# Conditions: endpoint: median survival time, higher = longer survival
# Summary of the method: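 In tumour-bearing mice, survival after compound treatment is set against the vehicle group and given as a quotient.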
# [1] = dose: 25.0 mg/kg/injection, schedule: Q01DX009 (ip), vehicle: saline with Tween-80
# [2] = dose: 100.0 mg/kg/injection, schedule: Q01DX009 (ip), vehicle: Klucel (hydroxypropylcellulose) (HPC)
# [3] = dose: 200.0 mg/kg/injection, schedule: Q01DX009 (ip), vehicle: Klucel (hydroxypropylcellulose) (HPC)
# [4] = dose: 400.0 mg/kg/injection, schedule: Q01DX009 (ip), vehicle: Klucel (hydroxypropylcellulose) (HPC)
# [5] = dose: 100.0 mg/kg/injection, schedule: Q01DX009 (ip), vehicle: saline with Tween-80
# [6] = dose: 50.0 mg/kg/injection, schedule: Q01DX009 (ip), vehicle: Klucel (hydroxypropylcellulose) (HPC)
# [7] = dose: 100.0 mg/kg/injection, schedule: Q04DX003 (ip), vehicle: Klucel (hydroxypropylcellulose) (HPC)
# [8] = dose: 200.0 mg/kg/injection, schedule: Q04DX003 (ip), vehicle: Klucel (hydroxypropylcellulose) (HPC)
# [9] = dose: 100.0 mg/kg/injection, schedule: Q04DX003 (ip), vehicle: saline with Tween-80
# [10] = dose: 400.0 mg/kg/injection, schedule: Q04DX003 (ip), vehicle: Klucel (hydroxypropylcellulose) (HPC)
smiles,measurement,setting,value
CCCC(NC(N)=O)C(CCC)NC(N)=O (centres undefined),T/C,"dose: 12.5 mg/kg/injection, schedule: Q01DX009 (ip), vehicle: saline with Tween-80",102 % of control
same,T/C,[1],100 % of control
same,T/C,"dose: 50.0 mg/kg/injection, schedule: Q01DX009 (ip), vehicle: saline with Tween-80",89 % of control
CCOC(=O)C(Cc1ccc(N(CCCl)CCCl)cc1)NC(=O)C(CCC(=O)O)NC(=O)C(CO)NC(=O)C(CCC(=O)O)NC(=O)C(N)CO (centres undefined) (H-SESE[ξPhe(4-N(CH2CH2Cl)2)]-OEt; configuration not given here),T/C,"dose: 5.0 mg/kg/injection, schedule: Q04DX003 (ip), vehicle: water",97 % of control
same,T/C,"dose: 10.0 mg/kg/injection, schedule: Q04DX003 (ip), vehicle: water",99 % of control
same,T/C,"dose: 20.0 mg/kg/injection, schedule: Q04DX003 (ip), vehicle: water",100 % of control
same,T/C,"dose: 40.0 mg/kg/injection, schedule: Q04DX003 (ip), vehicle: water",100 % of control
CC1(C)NC(=O)N(CN2CCN(CN3C(=O)NC(C)(C)C3=O)CC2)C1=O,T/C,"dose: 100.0 mg/kg/injection, schedule: Q04DX003 (ip), vehicle: saline sonified",107 % of control
same,T/C,"dose: 200.0 mg/kg/injection, schedule: Q04DX003 (ip), vehicle: saline sonified",115 % of control
same,T/C,"dose: 400.0 mg/kg/injection, schedule: Q04DX003 (ip), vehicle: saline sonified",115 % of control
CCOC(=O)CN(CC)C(=O)NC12CC3CC(CC(C3)C1)C2,T/C,[2],100 % of control
same,T/C,[3],103 % of control
same,T/C,[4],102 % of control
Oc1ccc2ccccc2c1N=Nc1ccc(F)cc1,T/C,[5],100 % of control
same,T/C,"dose: 200.0 mg/kg/injection, schedule: Q01DX009 (ip), vehicle: saline with Tween-80",90 % of control
same,T/C,"dose: 400.0 mg/kg/injection, schedule: Q01DX009 (ip), vehicle: saline with Tween-80",95 % of control
Cc1ccc(C2NC(=S)N3C(c4ccc(C)cc4)NC(=S)N23)cc1 (centres undefined),T/C,[6],98 % of control
same,T/C,[2],111 % of control
same,T/C,[3],111 % of control
same,T/C,[4],154 % of control
same,T/C,"dose: 400.0 mg/kg/injection, schedule: Q01DX009 (ip), vehicle: saline",112 % of control
same,T/C,"dose: 600.0 mg/kg/injection, schedule: Q01DX009 (ip), vehicle: saline",120 % of control
Cc1ccc(NC(=S)NNC(=S)NNc2ccccc2)cc1C,T/C,[2],115 % of control
same,T/C,[3],120 % of control
CCN1C(=O)CC(=O)N(CC)C1=S,T/C,[6],95 % of control
same,T/C,[2],91 % of control
same,T/C,[7],96 % of control
same,T/C,[3],104 % of control
same,T/C,[8],92 % of control
[Cl][Pd][Cl].[NH-]CC[NH-],T/C,"dose: 6.0 mg/kg/injection, schedule: Q01DX009 (ip), vehicle: saline with Tween-80",104 % of control
same,T/C,"dose: 12.0 mg/kg/injection, schedule: Q01DX009 (ip), vehicle: saline with Tween-80",104 % of control
same,T/C,[1],100 % of control
same,T/C,[5],118 % of control
same,T/C,[9],100 % of control
same,T/C,"dose: 200.0 mg/kg/injection, schedule: Q04DX003 (ip), vehicle: saline with Tween-80",118 % of control
same,T/C,"dose: 400.0 mg/kg/injection, schedule: Q04DX003 (ip), vehicle: saline with Tween-80",113 % of control
NC(=O)NC(=O)/C=C/C(=O)O,T/C,"dose: 25.0 mg/kg/injection, schedule: Q04DX003 (ip), vehicle: saline with Tween-80",91 % of control
same,T/C,"dose: 50.0 mg/kg/injection, schedule: Q04DX003 (ip), vehicle: saline with Tween-80",100 % of control
same,T/C,[9],91 % of control
C=C1C(c2ccccc2)C(c2ccccc2)=C(C)C(c2ccccc2)=CN1C(=O)c1ccccc1 (centres undefined),T/C,[6],97 % of control
same,T/C,[2],88 % of control
same,T/C,[3],95 % of control
O.[NH-]C(Cc1ccc(O)cc1)C(=O)O.[Ni] (centres undefined),T/C,"dose: 6.25 mg/kg/injection, schedule: Q01DX009 (ip), vehicle: saline",98 % of control
same,T/C,"dose: 12.5 mg/kg/injection, schedule: Q01DX009 (ip), vehicle: saline",107 % of control
same,T/C,"dose: 25.0 mg/kg/injection, schedule: Q04DX003 (ip), vehicle: saline",100 % of control
CCCCCCCCCCCCCCCCCCOc1ccccn1,T/C,"dose: 3.12 mg/kg/injection, schedule: Q01DX009 (ip), vehicle: Klucel (hydroxypropylcellulose) (HPC)",100 % of control
same,T/C,"dose: 6.25 mg/kg/injection, schedule: Q01DX009 (ip), vehicle: Klucel (hydroxypropylcellulose) (HPC)",104 % of control
same,T/C,"dose: 12.5 mg/kg/injection, schedule: Q01DX009 (ip), vehicle: Klucel (hydroxypropylcellulose) (HPC)",104 % of control
same,T/C,[7],95 % of control
same,T/C,[8],100 % of control
same,T/C,[4],89 % of control
same,T/C,[10],95 % of control
COc1ccc(OC)c2c1C(SC)C(=O)N2C (centres undefined),T/C,"dose: 50.0 mg/kg/injection, schedule: Q04DX002 (ip), vehicle: saline with Tween-80",100 % of control
same,T/C,"dose: 100.0 mg/kg/injection, schedule: Q04DX002 (ip), vehicle: saline with Tween-80",100 % of control
same,T/C,"dose: 200.0 mg/kg/injection, schedule: Q04DX002 (ip), vehicle: saline with Tween-80",107 % of control
O=C(COc1cccc(Cl)c1)Nc1cccnc1,T/C,"dose: 100.0 mg/kg/injection, schedule: Q01DX001 (ip), vehicle: Klucel (hydroxypropylcellulose) (HPC)",99 % of control
same,T/C,"dose: 200.0 mg/kg/injection, schedule: Q01DX001 (ip), vehicle: Klucel (hydroxypropylcellulose) (HPC)",99 % of control
CC[C@H]1CN2CCc3cc(OC)c(OC)cc3[C@@H]2C[C@@H]1C[C@H]1NCCc2c1[nH]c1ccc(O)cc21,T/C,"dose: 2.0 mg/kg/injection, schedule: Q04DX003 (ip), vehicle: saline + alcohol",186 % of control
same,T/C,"dose: 4.0 mg/kg/injection, schedule: Q04DX003 (ip), vehicle: saline + alcohol",183 % of control
CSN1C(=O)CCC1=O,T/C,"dose: 50.0 mg/kg/injection, schedule: Q04DX002 (ip), vehicle: saline",107 % of control
same,T/C,"dose: 100.0 mg/kg/injection, schedule: Q04DX002 (ip), vehicle: saline",100 % of control
same,T/C,"dose: 200.0 mg/kg/injection, schedule: Q04DX002 (ip), vehicle: saline",109 % of control
c1c2c(cc3c1OCO3)CC1CCCN1CC2 (centres undefined),T/C,"dose: 0.5 mg/kg/injection, schedule: Q01DX009 (ip), vehicle: saline with Tween-80",108 % of control
same,T/C,"dose: 1.0 mg/kg/injection, schedule: Q01DX009 (ip), vehicle: saline with Tween-80",100 % of control
same,T/C,"dose: 4.0 mg/kg/injection, schedule: Q01DX009 (ip), vehicle: saline with Tween-80",108 % of control
same,T/C,"dose: 8.0 mg/kg/injection, schedule: Q01DX009 (ip), vehicle: saline with Tween-80",108 % of control
O=C(NC(Cc1ccccc1)C(=O)CCl)OCc1ccccc1 (centres undefined),T/C,"dose: 4.4 mg/kg/injection, schedule: Q01DX009 (ip), vehicle: saline with Tween-80",112 % of control
same,T/C,"dose: 6.6 mg/kg/injection, schedule: Q01DX009 (ip), vehicle: saline with Tween-80",120 % of control
same,T/C,"dose: 15.0 mg/kg/injection, schedule: Q01DX009 (ip), vehicle: saline with Tween-80",112 % of control
same,T/C,[1],105 % of control and 113 % of control
same,T/C,"dose: 37.5 mg/kg/injection, schedule: Q01DX009 (ip), vehicle: saline with Tween-80",86 % of control
CC1(C)CC(=O)CC(C)(C)N1O,T/C,[7],100 % of control
same,T/C,[8],100 % of control
same,T/C,[10],104 % of control
